Assays:
Format in all cases: cell-based
[1] = test system: Human macrophage-like THP-1 cells; test: qRT-PCR of cytokine-induced gene expression in THP-1 cells
Experimental: (§1) Quantitative real-time PCR (qRT-PCR): Human FLS or monocytic THP-1 cells were stimulated with indicated stimulants for 4 hr. RNA was isolated and analyzed for gene expression by qRT-PCR using SuperScript III Platinum Two-Step qRT-PCR Kit with SYBR Green (Invitrogen), according to the manufacturer's instructions, in the ABI PRISM 7000 sequence detection system (Applied Biosystems). Fold changes were calculated using the comparative Ct method, after normalization using 18S rRNA primers.
as §1, with “macrophage-like” for “monocytic”

[2] = test system: Human fibroblast-like synovial (FLS) cells; test: qRT-PCR of cytokine-induced gene expression in FLS cells; details: some of the responses
Experimental: Cell culture and isolation: Human fibroblast-like synovial (FLS) cells were isolated from synovial tissues obtained from patients […]. Briefly, the tissues were digested with 1 mg/ml collagenase and 0.05 mg/ml hyaluronidase (both obtained from Sigma; Oakville, ON, Canada) in Hanks' balanced salt solution (Gibco) for 1-2 hours at 37° C. The cells were cultured in DMEM media (Gibco) supplemented with sodium pyruvate and non-essential amino acids (referred to as complete DMEM media henceforth), containing […] in a humidified incubator at 37° C. and 10% CO2. […] Cellular cytotoxicity was evaluated after 24 hr stimulation with the various stimulants used in this study by monitoring the release of lactate dehydrogenase (LDH) employing a colorimetric detection kit (Roche Diagnostics, Laval, QC, Canada).
as §1, with “primers. […]” for “primers.”

human PBMC = test: ELISA of IL-32-induced TNF-α and IL-1β production in PBMC (ex-vivo)
Text: In order to confirm these activities in a physiologically relevant system, we evaluated the impact of the peptide in an ex-vivo assay using human PBMC, because cells recruited from the circulation are a major component of inflammatory infiltrates. Venous blood was collected from healthy volunteers with informed consent in accordance to a protocol approved by the Institutional Review Board at the University of Manitoba. PBMC was isolated from blood following the teaching of Mookherjee et al. (2009, Systems biology evaluation of immune responses induced by human host defence peptide LL-37 in mononuclear cells. Mol. Biosyst. 5:483-496). PBMC were stimulated with chronic inflammatory cytokine IL-32 (20 ng/ml) in the presence and absence of 5 μM of peptides, LL-37 and its derivatives (Table 7) for 24 hr. The tissue culture supernatants were monitored for the production of pro-inflammatory cytokines TNF-α and IL-1β by ELISA. […] Results shown are an average of four independent biological experiments performed with cells isolated from blood of four different donors ±standard error.

[3] = test system: Human macrophage-like THP-1 cells; test: ELISA of cytokine/chemokine production in THP-1 tissue culture supernatants; details: both monocytic THP-1 and human FLS cells, data not shown
[4] = test system: Human macrophage-like THP-1 cells; test: as above
Experimental: ELISA immunoassay: Tissue culture supernatants were centrifuged at 1500× g for 5-7 min to obtain cell-free samples and the aliquots were stored at −20° C. until further use. Production of chemokine Gro-α was monitored in the tissue culture supernatants by ELISA employing human Gro-α DuoSet (R&D Systems Inc.) as per the manufacturer's instructions. Production of cytokine TNF-α was monitored in the tissue culture supernatants using specific antibody pairs from eBioscience, Inc., and production of IL-8 was monitored using specific antibody pairs from R&D Systems, Inc., as per the manufacturer's instructions. The concentration of the cytokines or chemokines in the tissue culture supernatants was evaluated by establishing a standard curve with serial dilutions of the recombinant human cytokines or chemokines as required.
ELISA immunoassay: Tissue culture supernatants were centrifuged at 1500× g for 5-7 min to obtain cell-free samples and the aliquots were stored at −20° C. until further use. Production of chemokine Gro-α was monitored in the tissue culture supernatants by ELISA employing human Gro-α DuoSet (R&D Systems Inc.) per the manufacturer's instructions. Production of cytokine TNF-α was monitored in the tissue culture supernatants using specific antibody pairs from eBioscience, Inc., and production of IL-8 was monitored using specific antibody pairs from R&D Systems, Inc., per the manufacturers' instructions. The concentrations of the cytokines or chemokines in the tissue culture supernatants were evaluated by establishing a standard curve with serial dilutions of the recombinant human cytokines or chemokines as required.
Impact of cationic peptide LL-37 and its synthetic derivatives on IL-32-induced protein production: Human macrophage-like THP-1 cells were stimulated with IL-32 (20 ng/mL) in the presence and absence of cationic peptide LL-37, tissues culture supernatants were monitored for the production of pro-inflammatory cytokines TNF-α and IL-1β, and chemokines after 24 hr of stimulation. […] As LL-37 suppressed IL-32-mediated pro-inflammatory responses, we also evaluated the impact of LL-37 derived synthetic peptides. […] No studies to data have explored the impact of these peptides in the context of chronic inflammation. […] This provides the data that supports further investigation of these peptide candidates as potential therapeutics for diseases characterized by chronic inflammation.

[5] = THP-1 cells, in the presence of the peptide
[6] = THP-1 cells, in the presence of the peptide, p<0.01
[7] = macrophage-like THP-1 cells, IL-32 20 ng/mL, 24 hr

LL-37: Human cathelicidin cationic host defence peptide, SEQ ID NO: 21, LLGDFFRKSKEKIGKEFKRIVQRIKDFLRNLVPRTES
Suppression of IL-32-induced IL-8 (CXCL8) expression [1, 5]: 30-40% | Suppression of IL-32-induced IL-23 expression [1, 5]: 30-40% | Suppression of IL-32-induced NF-κB1A expression [1, 5]: 30-40% | Suppression of IL-32-induced Gro-α (CXCL1) gene expression [1, 6]: > 50% | Suppression of IL-32-induced IL-6 gene expression [1, 6]: > 50% | Suppression of IL-32-induced TNF-α gene expression [1, 6]: > 50% | Effect on IL-17-induced expression of pro-inflammatory genes or chemokine genes ([1]; human monocytic cells / macrophages, data not shown): not altered | Effect on IL-17-induced transcriptional responses [2]: significantly enhanced | Effect on IL-32-induced IL-1β production (human PBMC; human PBMC, IL-32 20 ng/ml, 5 μM peptide, 24 hr): neutralized | Effect on IL-32-induced TNF-α production (human PBMC; human PBMC, IL-32 20 ng/ml, 5 μM peptide, 24 hr, p<0.05): neutralized | Effect on IL-32 induced pro-inflammatory protein production (FIG. 21 legend) (human PBMC; peripheral blood mononuclear cells): suppression | Effect on IL-17-induced chemokine production [3]: not significantly altered (or modestly enhanced) | Suppression of IL-32-induced TNF-α production ([4]; THP-1 monocytic cells, ELISA after 24 or 48 hr): > 30% | Suppression of IL-32-induced chemokine Gro-α production ([4]; THP-1 monocytic cells, ELISA after 24 or 48 hr, p<0.05): 12±4% | Effect on IL-32-induced IL-1β production [4, 7]: significantly suppressed | Effect on IL-32-induced TNF-α production [4, 7]: significantly suppressed | Effect on IL-32-induced chemokine production (IL-8, GROα) [4, 7]: not altered

— patent US20130123201A1, “MODULATION OF CYTOKINE-INDUCED CHRONIC INFLAMMATORY RESPONSES” (UNIVERSITY OF MANITOBA, priority 2010, published 2013)
